Data from US12540943B2, “Use of Acyl coenzyme A: cholesterol acyltransferase-1 in diagnosis and treatment of liver cancer” (ACADEMY OF MILITARY MEDICAL SCIENCES, priority 2018, dated 2026).

Legend:
Huh7 = assay: CCK8 experiment, proliferation of liver cancer cell line; type: cell-based, human; details: for effect on proliferation: Huh7, CCK8 growth curves 0-72 hours, inhibitor 10 μM, 20 μM
Method: (§1) 7. CCK8 experiment 1) On the first day, after routine trypsinization and counting of cells in a 60 mm culture dish, 5000 cells/well, inoculated 4 96-well plates. 2) On the second day, after about 24 hours of culture, the cell growth was in the logarithmic phase. […] Took a 96-well plate and added 10% CCK8, 100 μl/well, and measured the OD value at 0 hour at 450 nm wavelength after 1 hour. Cell-free well was a blank background. 3) On the third day, added 10% CCK8 to a 96-well plate, and measured the OD value at 24 hours at 450 nm wavelength after 1 hour. 4) On the fourth day, added 10% CCK8 to a 96-well plate, and measured the OD value at 48 hours at 450 nm wavelength after 1 hour. 5) On the fifth day, added 10% CCK8 to a 96-well plate, and measured the OD value at 72 hours at 450 nm wavelength after 1 hour. 6) Summarized the OD values at all time points and drew growth curves. 8. Cell migration experiment

MHCC97H = assay: as above; type: cell-based, human; details: for effect on proliferation: CCK8 growth curves 0-72 hours, inhibitor 10 μM, 20 μM
Method: as §1

[1] = test system: esophageal cancer ECA109 cell line; assay: Proliferation of other tumor cell lines; type: cell-based, human; details: ECA109, FIG. 7
Method: (§2) 1) On the first day, after routine trypsinization and counting of cells in a 60 mm culture dish, 5000 cells/well, inoculated 4 96-well plates.
(§3) 2) On the second day, after about 24 hours of culture, the cell growth was in the logarithmic phase. Replaced with a new culture medium added with different concentrations of SOAT1 inhibitor, 100 μl/well, set 10 μM, 20 μM concentration group and control group respectively, the control group was 1% DMSO, each group had 3 repetitive wells. Took a 96-well plate and added 10% CCK8, 100 μl/well, and measured the OD value at 0 hour at 450 nm wavelength after 1 hour. Cell-free well was a blank background.
(§4) 3) On the third day, added 10% CCK8 to a 96-well plate, and measured the OD value at 24 hours at 450 nm wavelength after 1 hour.
(§5) 4) On the fourth day, added 10% CCK8 to a 96-well plate, and measured the OD value at 48 hours at 450 nm wavelength after 1 hour.
(§6) 5) On the fifth day, added 10% CCK8 to a 96-well plate, and measured the OD value at 72 hours at 450 nm wavelength after 1 hour.
(§7) 6) Summarized the OD values at all time points and drew growth curves. 8. Cell migration experiment

[2] = test system: non-small cell lung cancer A549 cell line; assay: Proliferation of other tumor cell lines; type: cell-based, human; details: A549, FIG. 7
Method: as §2, §3, §4, §5, §6, §7

[3] = test system: leukemia Jurkat cell line; assay: Proliferation of other tumor cell lines; type: cell-based, human; details: FIG. 7
Method: as §2, §3, §4, §5, §6, §7

[4] = test system: Cervical cancer Hela cell line; assay: Proliferation of other tumor cell lines; type: cell-based, human; details: FIG. 7
Method: as §2, §3, §4, §5, §6, §7

[5] = test system: colon cancer HCT116 cell line; assay: Proliferation of other tumor cell lines; type: cell-based, human; details: HCT116, FIG. 7
Method: as §2, §3, §4, §5, §6, §7

[6] = test system: breast cancer MCF7 cell line; assay: Proliferation of other tumor cell lines; type: cell-based, human; details: MCF7, FIG. 7
Method: as §2, §3, §4, §5, §6, §7

[7] = test system: transcription factor SREBF2; assay: Expression of cholesterol regulation and tumor invasion molecules (FIG. 8); type: cell-based
HepG2 [8] = assay: Cell migration experiment (transwell); type: cell-based, human; details: 20-24 hours, Avasimibe concentration 10 μM or SOAT1 knockdown
Method: as §7
(§8) (1) Starving cells: Withdrew the whole medium, washed twice with PBS, and replaced with serum-free DMEM.
(§9) (2) Added 2.5% serum of DMEM to the transwell lower chamber, 600 ul/well. Equilibrated overnight in a 37° C. incubator. Thetranswell chamber was 3422 of
(§10) (3) Added trypsin to digest the hungry cells from yesterday (about 30-50 seconds at room temperature), quickly and carefully sucked up the trypsin, added 1 ml of complete medium, and collected in a 1.5 ml centrifuge tube;
(§11) (4) Centrifuged at 800 rpm for 4 min; discarded the supernatant, added serum-free DMEM, and washed once; centrifuged again for 4 min at 800 rpm; discarded the supernatant and added 0.5% FBS in DMEM;
(§12) 100 μl/well was added to the tanswell upper chamber. The third day (20-24 hours later): (6) Discarded the culture medium; (7) Fixed with anhydrous methanol for 20 minutes; (8) Air-dried the film; (9) Pinched the cotton of the cotton swab to flat and rotated it to clean the upper chamber cells. Wrapped the tweezers with a cotton ball to gently wipe off the edge cells. (10) 0.5% crystal violet staining; (11) Rinsed slowly with clean water; (12) Observed and took pictures under an inverted microscope. 9. Western blot detection was done by conventional methods. 10. Statistical analysis

PLC/PRF/5 [9] = assay: Cell migration experiment (transwell); type: cell-based, human; details: 20-24 hours, Avasimibe concentration 10 μM or SOAT1 knockdown
Method: as §7, §8, §9, §10, §11, §12

ITGB4 = assay: Expression of cholesterol regulation and tumor invasion molecules (FIG. 8); type: cell-based
TGFBR1 = assay: as above; type: cell-based
PLC/PRF/5 [10] = assay: CCK8 experiment, proliferation of liver cancer cell line; type: cell-based, human
Method: as §2, §3, §4, §5, §6, §7

ITGAV = assay: Expression of cholesterol regulation and tumor invasion molecules (FIG. 8); type: cell-based
HepG2 [11] = assay: CCK8 experiment, proliferation of liver cancer cell line; type: cell-based, human; details: CCK8 growth curves 0-72 hours, inhibitor 10 μM, 20 μM or SOAT1 knockdown
[12] = test system: extracellular uptake receptor (LDLR); assay: Expression of cholesterol regulation and tumor invasion molecules (FIG. 8); type: cell-based

Compound | effect on proliferation (Huh7) | effect on proliferation (MHCC97H) | effect on proliferation [1] | effect on proliferation [2] | effect on proliferation [3] | effect on proliferation [4] | effect on proliferation [5] | effect on proliferation [6] | effect on expression of SREBF2 [7] | effect on migration (HepG2 [8]) | effect on migration (PLC/PRF/5 [9]) | effect on expression of ITGB4 (ITGB4) | effect on expression of TGFBR1 (TGFBR1) | IC50 (PLC/PRF/5 [10]; PLC/PRF/5, FIG. 5A) [µM] | effect on proliferation (PLC/PRF/5 [10]; PLC/PRF/5, CCK8 growth curves 0-72 hours, inhibitor 10 μM, 20 μM or SOAT1 knockdown) | effect on expression of ITGAV (ITGAV) | effect on proliferation (HepG2 [11]) | effect on expression of LDLR [12] | IC50 (Huh7; Huh7, FIG. 5A) [µM] | IC50 (MHCC97H; FIG. 5A) [µM]
CSc1cc(C)nc(SC)c1NC(=O)CN1CCN(CCSc2nc3ccccc3[nH]2)CC1.Cl [K604, 2-[4-[2-(benzimidazol-2-ylthio)ethyl]piperazin-lyl]-N-[2,4-bis(methylthio)-6-methyl-3-pyridyl]acetamide] | significantly inhibited the proliferation | significantly inhibited the proliferation |  |  |  |  |  |  |  |  |  |  |  |  |  |  |  |  |  | 
Avasimibe | significantly inhibit the proliferation | significantly inhibit the proliferation | significantly inhibited the proliferation | significantly inhibited the proliferation | significantly inhibited the proliferation | significantly inhibited the proliferation | significantly inhibited the proliferation | significantly inhibited the proliferation | significantly inhibit the expression | significantly reduce the migration | significantly reduce the migration | significantly inhibit the expression | significantly inhibit the expression | 6.9 | significantly inhibit the proliferation | significantly inhibit the expression | significantly inhibit the proliferation | significantly inhibit the expression | 6.8 | 25.2
